Laboratory results published in patent publication US8999957B2, “Heterocyclic compounds as ERK inhibitors” (Merck Sharp & Dohme Corp., priority 2010, dated 2015).
Where two headings read alike, the source gives them in different places.

Target: fully phosphorylated, mouse aERK2 enzyme (Mus musculus (Mouse), UniProt P63085)
Assay: Active ERK2 (aERK) IMAP-FP assay, condition 2
Assay type: biochemical
Method: Active ERK2 (aERK) Assay: (Unless Indicated Otherwise, the Data Provided for aERK was obtained using Condition 1)
Activated ERK2 activity was determined in an IMAP-FP assay (Molecular Devices). […] Phosphorylation reactions were allowed to proceed for 40-45 minutes and were immediately quenched by the addition of 60 μL IMAP detection beads (1:1000 dilutions) in IMAP binding buffer. Plates were read on EnVision reader after 30 minutes binding equilibration.

[1] = aERK assay condition 2, 30 uM ATP, read-out: aERK IC50
[2] = active ERK2, read-out: aErk2 Ic50

fully phosphorylated, mouse aERK2 enzyme, sequence (P63085 whole entry): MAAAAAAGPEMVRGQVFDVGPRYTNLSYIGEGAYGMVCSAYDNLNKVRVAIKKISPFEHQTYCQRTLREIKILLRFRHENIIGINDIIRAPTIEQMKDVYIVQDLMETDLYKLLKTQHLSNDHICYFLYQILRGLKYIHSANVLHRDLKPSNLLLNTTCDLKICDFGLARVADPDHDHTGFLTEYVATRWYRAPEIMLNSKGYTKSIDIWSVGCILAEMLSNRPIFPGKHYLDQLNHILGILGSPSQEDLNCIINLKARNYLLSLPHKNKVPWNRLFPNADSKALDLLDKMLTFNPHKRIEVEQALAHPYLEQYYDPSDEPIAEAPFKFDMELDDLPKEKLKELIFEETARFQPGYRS

SMILES	IC50 [1] [nM]	IC50 [2] [nM]
COc1cccc(F)c1CN1C[C@H](NC(=O)c2ccc3[nH]nc(-c4ccnc(C)c4)c3c2)CC[C@H]1C(=O)Nc1cccnc1 [N-[(3R,6S)-1-(2-fluoro-6-methoxybenzyl)-6-(pyridin-3-ylcarbamoyl)piperidin-3-yl]-3-(2-methylpyridin-4-yl)-1H-indazole-5-carboxamide]	4.1	–
COc1cccc(F)c1CN1C[C@H](NC(=O)c2ccc3[nH]nc(-c4ccnc(C)c4)c3c2)CC[C@H]1C(=O)Nc1ccncc1 [N-[(3R,6S)-1-(2-fluoro-6-methoxybenzyl)-6-(pyridin-4-ylcarbamoyl)piperidin-3-yl]-3-(2-methylpyridin-4-yl)-1H-indazole-5-carboxamide]	3	–
COc1cccc(F)c1CN1C[C@H](NC(=O)c2ccc3[nH]nc(-c4ccnc(C)c4)c3c2)CC[C@H]1C(=O)NCC1(CO)CCCC1 [N-[(3R,6S)-1-(2-fluoro-6-methoxybenzyl)-6-({[1-(hydroxymethyl)cyclopentyl]methyl}carbamoyl)piperidin-3-yl]-3-(2-methylpyridin-4-yl)-1H-indazole-5-carboxamide]	8.8	–
COc1cccc(F)c1CN1C[C@H](NC(=O)c2ccc3[nH]nc(-c4ccnc(C)c4)c3c2)CC[C@H]1C(=O)NC[C@@H]1CC[C@@H](O)C1 [N-[(3R,6S)-1-(2-fluoro-6-methoxybenzyl)-6-({[(1R,3R)-3-hydroxycyclopentyl]methyl}carbamoyl)piperidin-3-yl]-3-(2-methylpyridin-4-yl)-1H-indazole-5-carboxamide]	1.5	–
COc1cccc(F)c1CN1C[C@H](NC(=O)c2ccc3[nH]nc(-c4ccnc(C)c4)c3c2)CC[C@H]1C(=O)NC[C@H]1CC[C@H](O)C1 [N-[(3R,6S)-1-(2-fluoro-6-methoxybenzyl)-6-({[(1S,3S)-3-hydroxycyclopentyl]methyl}carbamoyl)piperidin-3-yl]-3-(2-methylpyridin-4-yl)-1H-indazole-5-carboxamide]	1.3	–
O=C(N[C@@H]1CC[C@@H](C(=O)NCc2ccccc2)N(Cc2ccccc2)C1)c1ccc2[nH]nc(-c3ccncc3)c2c1 [N-[(3R,6S)-1-benzyl-6-(benzylcarbamoyl)piperidin-3-yl]-3-pyridin-4-yl-1H-indazole-5-carboxamide]	–	47.5
CCNC(=O)[C@@H]1CC[C@@H](NC(=O)c2ccc3[nH]nc(-c4ccncc4)c3c2)CN1Cc1ccccc1 [N-[(3R,6S)-1-benzyl-6-(ethylcarbamoyl)-piperidin-3-yl]-3-pyridin-4-yl-1H-indazole-5-carboxamide]	–	48.3
COc1cccc(F)c1CN1C[C@H](NC(=O)c2ccc3[nH]nc(-c4ccnc(C)c4)c3c2)CC[C@H]1C(=O)NC1CC1 [N-[(3R,6S)-6-(cyclopropylcarbamoyl)-1-(2-fluoro-6-methoxybenzyl)piperidin-3-yl]-3-(2-methylpyridin-4-yl)-1H-indazole-5-carboxamide]	3.4	–
CCCCN(CCCC)C(=O)[C@@H]1CC[C@@H](NC(=O)c2ccc3[nH]nc(-c4ccnc(C)c4)c3c2)CN1Cc1c(F)cccc1OC [N-[(3R,6S)-6-(dibutylcarbamoyl)-1-(2-fluoro-6-methoxybenzyl)piperidin-3-yl]-3-(2-methylpyridin-4-yl)-1H-indazole-5-carboxamide]	–	502
CCN(CC)C(=O)[C@@H]1CC[C@@H](NC(=O)c2ccc3[nH]nc(-c4ccnc(C)c4)c3c2)CN1Cc1c(F)cccc1F [N-[(3R,6S)-6-(diethylcarbamoyl)-1-(2,6-difluorobenzyl)piperidin-3-yl]-3-(2-methylpyridin-4-yl)-1H-indazole-5-carboxamide]	–	80.7
CCN(CC)C(=O)[C@@H]1CC[C@@H](NC(=O)c2ccc3[nH]nc(-c4ccnnc4)c3c2)CN1Cc1c(F)cccc1OC [N-[(3R,6S)-6-(diethylcarbamoyl)-1-(2-fluoro-6-methoxybenzyl)piperidin-3-yl]-3-pyridazin-4-yl-1H-indazole-5-carboxamide]	–	137
CCN(CC)C(=O)[C@@H]1CC[C@@H](NC(=O)c2ccc3[nH]nc(-c4ccnc(C)c4)c3c2)CN1CCc1ccccc1 [N-[(3R,6S)-6-(diethylcarbamoyl)-1-(2-phenylethyl)piperidin-3-yl]-3-(2-methylpyridin-4-yl)-1H-indazole-5-carboxamide]	–	158
COc1cccc(F)c1CN1C[C@H](NC(=O)c2ccc3[nH]nc(-c4ccc5nc(C)sc5c4)c3c2)CC[C@H]1C(=O)N(C)C [N-[(3R,6S)-6-(dimethylcarbamoyl)-1-(2-fluoro-6-methoxybenzyl)piperidin-3-yl]-3-(2-methyl-1,3-benzothiazol-6-yl)-1H-indazole-5-carboxamide]	–	48
COc1cccc(F)c1CN1C[C@H](NC(=O)c2ccc3[nH]nc(-c4ccnc(C)c4)c3c2)CC[C@H]1C(=O)N(C)C [N-[(3R,6S)-6-(dimethylcarbamoyl)-1-(2-fluoro-6-methoxybenzyl)piperidin-3-yl]-3-(2-methylpyridin-4-yl)-1H-indazole-5-carboxamide]	–	37.8
COc1cccc(F)c1CN1C[C@H](NC(=O)c2ccc3[nH]nc(-c4ccnnc4)c3c2)CC[C@H]1C(=O)N(C)C [N-[(3R,6S)-6-(dimethylcarbamoyl)-1-(2-fluoro-6-methoxybenzyl)piperidin-3-yl]-3-pyridazin-4-yl-1H-indazole-5-carboxamide]	–	137
Cc1cc(-c2n[nH]c3ccc(C(=O)N[C@@H]4CC[C@@H](C(=O)N(C)C)N(Cc5ccccc5F)C4)cc23)ccn1 [N-[(3R,6S)-6-(dimethylcarbamoyl)-1-(2-fluorobenzyl)piperidin-3-yl]-3-(2-methylpyridin-4-yl)-1H-indazole-5-carboxamide]	–	39.4
Cc1cc(-c2n[nH]c3ccc(C(=O)N[C@@H]4CC[C@@H](C(=O)N(C)C)N(CCc5ccccc5)C4)cc23)ccn1 [N-[(3R,6S)-6-(dimethylcarbamoyl)-1-(2-phenylethyl)piperidin-3-yl]-3-(2-methylpyridin-4-yl)-1H-indazole-5-carboxamide]	–	131
CCCN(CCC)C(=O)[C@@H]1CC[C@@H](NC(=O)c2ccc3[nH]nc(-c4ccnc(C)c4)c3c2)CN1Cc1c(F)cccc1OC [N-[(3R,6S)-6-(dipropylcarbamoyl)-1-(2-fluoro-6-methoxybenzyl)piperidin-3-yl]-3-(2-methylpyridin-4-yl)-1H-indazole-5-carboxamide]	–	141
COc1cccc(F)c1CN1C[C@H](NC(=O)c2ccc3[nH]nc(-c4ccnc(C)c4)c3c2)CC[C@H]1C(=O)NOC(C)(C)C [N-[(3R,6S)-6-(tert-butoxycarbamoyl)-1-(2-fluoro-6-methoxybenzyl)piperidin-3-yl]-3-(2-methylpyridin-4-yl)-1H-indazole-5-carboxamide]	–	26.2

Further lines, results first:

IC50 [1] [nM]	IC50 [2] [nM]	SMILES
–	35.5	COc1cccc(F)c1CN1C[C@H](NC(=O)c2ccc3[nH]nc(-c4ccncc4)c3c2)CC[C@H]1C(=O)N1CCCC1 [N-[(3R,6S)-1-(2-fluoro-6-methoxybenzyl)-6-(pyrrolidin-1-ylcarbonyl)piperidin-3-yl]-3-pyridin-4-yl-1H-indazole-5-carboxamide]
–	1	CNC(=S)NNC(=O)[C@@H]1CC[C@@H](NC(=O)c2ccc3[nH]nc(-c4ccnc(C)c4)c3c2)CN1Cc1c(F)cccc1OC [N-[(3R,6S)-1-(2-fluoro-6-methoxybenzyl)-6-{[2-(methylcarbamothioyl)hydrazino]-carbonyl}piperidin-3-yl]-3-(2-methylpyridin-4-yl)-1H-indazole-5-carboxamide]
–	34.9	COc1cccc(F)c1CN1C[C@H](NC(=O)c2ccc3[nH]nc(-c4ccnc(C)c4)c3c2)CC[C@H]1C(=O)N1CCC1 [N-[(3R,6S)-6-(azetidin-1-ylcarbonyl)-1-(2-fluoro-6-methoxybenzyl)piperidin-3-yl]-3-(2-methylpyridin-4-yl)-1H-indazole-5-carboxamide]
–	32.9	CCN(CC)C(=O)[C@@H]1CC[C@@H](NC(=O)c2ccc3[nH]nc(-c4ccc5nc(C)sc5c4)c3c2)CN1Cc1c(F)cccc1OC [N-[(3R,6S)-6-(diethylcarbamoyl)-1-(2-fluoro-6-methoxybenzyl)piperidin-3-yl]-3-(2-methyl-1,3-benzothiazol-6-yl)-1H-indazole-5-carboxamide]
–	16.2	CCN(CC)C(=O)[C@@H]1CC[C@@H](NC(=O)c2ccc3[nH]nc(-c4ccnc(C)c4)c3c2)CN1Cc1c(F)cccc1OC [N-[(3R,6S)-6-(diethylcarbamoyl)-1-(2-fluoro-6-methoxybenzyl)piperidin-3-yl]-3-(2-methylpyridin-4-yl)-1H-indazole-5-carboxamide]
–	18.4	CCN(CC)C(=O)[C@@H]1CC[C@@H](NC(=O)c2ccc3[nH]nc(-c4ccncc4)c3c2)CN1Cc1c(F)cccc1OC [N-[(3R,6S)-6-(diethylcarbamoyl)-1-(2-fluoro-6-methoxybenzyl)piperidin-3-yl]-3-pyridin-4-yl-1H-indazole-5-carboxamide]
–	20.1	CCN(CC)C(=O)[C@@H]1CC[C@@H](NC(=O)c2ccc3[nH]nc(-c4ccnc(C)c4)c3c2)CN1Cc1ccccc1F [N-[(3R,6S)-6-(diethylcarbamoyl)-1-(2-fluorobenzyl)piperidin-3-yl]-3-(2-methylpyridin-4-yl)-1H-indazole-5-carboxamide]
–	18.2	COc1cccc(F)c1CN1C[C@H](NC(=O)c2ccc3[nH]nc(-c4ccncc4)c3c2)CC[C@H]1C(=O)N(C)C [N-[(3R,6S)-6-(dimethylcarbamoyl)-1-(2-fluoro-6-methoxybenzyl)piperidin-3-yl]-3-pyridin-4-yl-1H-indazole-5-carboxamide]
–	14.4	Cc1cc(-c2n[nH]c3ccc(C(=O)N[C@@H]4CC[C@@H](C(=O)N(C)C)N(Cc5cccs5)C4)cc23)ccn1 [N-[(3R,6S)-6-(dimethylcarbamoyl)-1-(thiophen-2-ylmethyl)piperidin-3-yl]-3-(2-methylpyridin-4-yl)-1H-indazole-5-carboxamide]
